Test results reported in patent US20220143231A1, “MACROCYCLIC COMPOUNDS AND METHODS OF USE THEREOF” (Janssen Biotech, Inc., priority 2020, published 2022).

Assay: Chelation test with La^3+ by HPLC
Assay type: physicochemical
Conditions: FIGS. 1A-1B

Row | chelation of La^3+ (shift in HPLC retention time after mixing) | SMILES
1 | rapid chelation | CC(C)CCC(c1cccc(C(=O)O)n1)N1CCOCCOCCN(Cc2cccc(C(=O)O)n2)CCOCCOCC1 (centres unmarked) [TOPA-[C7]-isopentyl, 6-((16-(1-(6-carboxypyridin-2-yl)-4-methylpentyl)-1,4,10,13-tetraoxa-7,16-diazacyclooctadecan-7-yl)methyl)picolinic acid]
2 | rapid chelation | O=C(O)c1cccc(CN2CCOCCOCCN(C(c3ccccc3)c3cccc(C(=O)O)n3)CCOCCOCC2)n1 (centres unmarked) [TOPA-[C7]-phenyl, 6-((16-((6-carboxypyridin-2-yl)(phenyl)methyl)-1,4,10,13-tetraoxa-7,16-diazacyclooctadecan-7-yl)methyl)picolinic acid]
